Measurements as given in publication PMC10333884, “Large‐scale phosphomimetic screening identifies phospho‐modulated motif‐based protein interactions” (Molecular Systems Biology, 2023).
Residues, ends and D or L forms follow the SMILES beside them. *: point of attachment. FITC = O=C1OC2(c3ccc(O)cc3Oc3cc(O)ccc32)c2ccc(NC(=S)*)cc21

Tests used:
[1] = molecular target: T1, MAP1LC3B ATG8 (Homo sapiens, UniProt Q9GZQ8); assay: FP saturation experiment, MAP1LC3B ATG8; details: FP saturation (direct binding), 5 nM FITC-labelled peptide, 50 mM sodium phosphate pH 7.4, room temperature; at least technical triplicates; reference for probe peptide PMID: 33436498; read-out: KD [µM] + SE
T1 construct: MAP1LC3B ATG8; made in house; host or cells: Escherichia coli BL21-Gold(DE3)
Protocol: (§1) FP experiments were performed as described previously (Kliche et al, [2021]). Shortly, in order to monitor the binding event, FITC‐labelled peptides were used (excitation 495 nm, emission: 535 nm) and the FP signal was recorded in mP on a SpectraMax iD5 Multi‐Mode Microplate Reader (Molecular Devices) by measuring the emitted light in two angels. The measurements were performed at room temperature and prepared in nonbinding black half area 96‐well microplates (Corning®; 50 μl/well). For measuring direct binding, that is saturation curves, a 1:1 dilution series of protein domain (25 μl/well) was generated in 50 mM sodium phosphate buffer pH 7.4 and the measurement performed with 5 nM FITC‐labelled peptide (25 μl/well). The buffer‐corrected values were subsequently plotted with PRISM and fitted to the quadratic equation (Gianni et al, [2005]).

[2] = molecular target: T2, GABARAPL2 ATG8 (Homo sapiens, UniProt P60520); assay: FP saturation experiment, GABARAPL2 ATG8; details: FP saturation (direct binding), 5 nM FITC-labelled peptide, 50 mM sodium phosphate pH 7.4, room temperature; at least technical triplicates; reference for probe peptide PMID: 33436498; read-out: KD [µM] + SE
T2 construct: GABARAPL2_ATG8__P60520_2_115; GST (cleaved yes); made in house; host or cells: Escherichia coli BL21-Gold(DE3)
T2 sequence (P60520 2-115): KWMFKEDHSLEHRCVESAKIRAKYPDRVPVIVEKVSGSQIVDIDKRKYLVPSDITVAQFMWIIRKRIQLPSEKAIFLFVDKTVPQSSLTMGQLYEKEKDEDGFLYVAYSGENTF
Protocol: as §1

[3] = test system: PIN1 WW domain; assay: FP displacement assay, PIN1 WW domain (GST-tagged); type: binding, human; details: probe FITC-SMAD3, technical triplicates
Protocol: For FP, ITC and crystallisation, the tag was removed with the appropriate protease either on beads (0.1 mg/ml thrombin (Cytiva) in PBS, 1 mM dithiothreitol (DTT)) or by dialysis in cleavage buffer (Human Rhinovirus (HRV) 3C protease: 50 mM Tris–HCl pH 7.4, 150 mM NaCl, 1 mM β‐mercaptoethanol), both procedures were overnight. In case of HRV protease cleavage, the tag was separated from the target protein domain by reverse ion metal affinity chromatography using Ni^2+ beads for purification, whereas thrombin was removed using a benzamidine column (Cytiva). Affinity measurements for SNX27 PDZ were performed on the MBP‐tagged construct, as well as PIN1 WW domain on the GST‐tagged construct. For FP and ITC, proteins were dialysed in 50 mM sodium phosphate buffer pH 7.4, 1 mM DTT. For crystallisation of the NTD of clathrin, the protein was further purified by a S200 Sepharose column (Cytiva) using 20 mM Tris–HCl pH 7.4, 150 mM NaCl and 1 mM DTT.
FP experiments were performed as described previously (Kliche et al, [2021]). Shortly, in order to monitor the binding event, FITC‐labelled peptides were used (excitation 495 nm, emission: 535 nm) and the FP signal was recorded in mP on a SpectraMax iD5 Multi‐Mode Microplate Reader (Molecular Devices) by measuring the emitted light in two angels. […]

[4] = molecular target: T3, KPNA4 ARM minor (Homo sapiens, UniProt O00629); assay: FP saturation experiment, KPNA4 ARM (minor); details: FP saturation (direct binding), 5 nM FITC-labelled peptide, 50 mM sodium phosphate pH 7.4, room temperature; at least technical triplicates; reference for probe peptide PMID: 35044719; read-out: KD [µM] + SE
T3 construct: 60-487; GST (cleaved yes); made in house; host or cells: Escherichia coli BL21-Gold(DE3)
T3 sequence (O00629 60-487): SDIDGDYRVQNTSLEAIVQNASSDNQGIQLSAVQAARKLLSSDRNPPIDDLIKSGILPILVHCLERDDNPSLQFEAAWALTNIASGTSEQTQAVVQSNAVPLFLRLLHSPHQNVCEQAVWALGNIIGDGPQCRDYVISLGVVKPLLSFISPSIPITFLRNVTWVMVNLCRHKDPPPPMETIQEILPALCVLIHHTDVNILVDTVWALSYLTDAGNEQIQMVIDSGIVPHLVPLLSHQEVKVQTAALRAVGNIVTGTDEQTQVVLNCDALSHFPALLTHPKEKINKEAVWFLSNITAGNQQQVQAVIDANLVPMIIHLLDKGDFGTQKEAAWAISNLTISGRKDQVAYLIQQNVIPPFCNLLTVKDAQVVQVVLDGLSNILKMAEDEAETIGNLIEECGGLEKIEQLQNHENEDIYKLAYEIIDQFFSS
Protocol: as §1

[5] = molecular target: T4, GGA1 VHS (Homo sapiens, UniProt Q9UJY5); assay: FP saturation experiment, GGA1 VHS; details: FP saturation (direct binding), 5 nM FITC-labelled peptide, 50 mM sodium phosphate pH 7.4, room temperature; at least technical triplicates; reference for probe peptide RiboVD, Mihalič et al, to be published; read-out: KD [µM] + SE
T4 construct: GGA1_VHS__Q9UJY5_1_157; GST (cleaved yes); made in house; host or cells: Escherichia coli BL21-Gold(DE3)
T4 sequence (Q9UJY5 1-157): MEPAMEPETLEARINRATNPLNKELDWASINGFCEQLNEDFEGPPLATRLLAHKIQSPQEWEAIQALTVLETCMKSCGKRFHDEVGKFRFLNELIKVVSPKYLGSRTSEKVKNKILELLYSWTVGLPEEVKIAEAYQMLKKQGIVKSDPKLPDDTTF
Protocol: as §1

[6] = molecular target: T5, AP2 μ2 (Homo sapiens, UniProt Q96CW1); assay: Phosphomimetic ProP-PD selection, AP2 μ2; details: phosphomimetic enrichment score of the wild-type/phosphomimetic (E) pair at the phosphosite, PM_HD2 phage selection, all overlapping peptides and replicates; positive = phosphomimetic enhances binding; P-value in brackets not taken
T5 construct: AP2_Mu__Q96CW1_160_435; GST (cleaved yes); made in house; host or cells: Escherichia coli BL21-Gold(DE3)
T5 sequence (Q96CW1 160-435): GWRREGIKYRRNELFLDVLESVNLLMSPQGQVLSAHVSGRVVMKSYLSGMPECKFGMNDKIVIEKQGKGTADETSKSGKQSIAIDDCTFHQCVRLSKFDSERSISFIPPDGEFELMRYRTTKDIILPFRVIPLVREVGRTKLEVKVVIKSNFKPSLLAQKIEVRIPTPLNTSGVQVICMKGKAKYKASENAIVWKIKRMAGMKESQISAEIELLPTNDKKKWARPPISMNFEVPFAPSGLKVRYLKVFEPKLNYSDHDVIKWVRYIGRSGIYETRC
Protocol: Selections using the PM_HD2 phage library were performed as described previously with minor modification to the original protocol. The corresponding tag protein (either GST or MBP) was first used during negative selections. Selections were run for 4 days. • Bait and tag proteins (10–15 μg in 100 μl PBS) were immobilised in 96‐well MaxiSorb plate (NUNC) o.n. at 4°C. • Escherichia coli OmniMax bacteria were grown in 2YT medium supplemented with tetracycline (100 μg/ml) at 37°C and 200 rpm. • Plates with immobilised bait/tag proteins were blocked with 0.5% BSA in PBS for 1 h at 4°C. • Phage library (10 μl/well) was prepared by diluting 10× with PBS and adding one‐fourth of the volume of PEG/NaCl. For phage precipitation, prepared library was incubated for 10 min on ice followed by centrifugation for 10 min at 10,000 × g at 4°C. […]
Based on the results from phage pool ELISAs, samples from selection Day 3 and 4 were selected for NGS, as described previously (Benz et al, [2022]). • Peptide coding regions were amplified and dual‐barcoded by PCR. […] From the columns, samples were eluted with 30 μl TE (10 mM Tris–HCl, 1 mM EDTA. pH 7.5) buffer and quantified with Quant‐iT PicoGreen dsDNA Assay Kit. • Samples were sequenced on MiSeq (MSC 2.5.0.5/RTA 1.18.54) with a 151 nt (Read1) setup using “Version3” chemistry. […]

[7] = molecular target: T5, AP2 μ2; assay: FP displacement assay, AP2 μ2; type: binding; details: probe FITC-ATG9A 5 nM, 50 mM sodium phosphate pH 7.4, room temperature, at least three technical replicates, read-out: KD values ± SEM
Protocol: as §1
The 1:1 dilution series in this experiment was performed with the unlabelled peptide in 50 mM sodium phosphate buffer pH 7.4, so that each well‐contained unlabelled peptide (25 μl) at a certain concentration and pre‐formed complex (25 μl). The KD values of this indirectly monitored binding event were calculated as described previously (Nikolovska‐Coleska et al, [2004]). All measurements were at least in technical triplicates as well as biological duplicates when indicated. An amplitude shift between repeat measurements in the displacement experiments was occasionally observed due to variations in the protein preparations. If that was the case, the “active” protein concentration was back‐calculated according to the quadratic equation from the saturation curves performed in parallel. By comparing the active protein concentrations in the complex between different protein preparations, the amplitude was normalised.

CC(C)C[C@H](NC(=O)[C@H](Cc1c[nH]cn1)NC(=O)[C@@H](NC(=O)[C@H](Cc1c[nH]c2ccccc12)NC(=O)[C@H](CC(=O)O)NC(=O)[C@H](CC(=O)O)NC(=O)[C@H](CC(=O)O)NC(=S)Nc1ccc2c(c1)C(=O)OC21c2ccc(O)cc2Oc2cc(O)ccc21)[C@@H](C)O)C(=O)N[C@@H](CO)C(=O)N[C@@H](CO)C(=O)N[C@@H](CCCCN)C(N)=O [FITC-SQSTM1]
Kd [1]: 2.5 ± 0.2 µM
Kd [2]: 11 ± 1 µM

H3COC-MSETQSS(pS/E)PTKGVLMY-NH2 [PIAS2_493–507 wt, wild-type PIAS2 493-507 peptide]
binding in FP displacement experiment [3]: none of the peptides tested

CC[C@H](C)[C@H](NC(=O)[C@H](C)NC(=O)[C@H](CCCNC(=N)N)NC(=O)CNC(=O)[C@@H](NC(=O)[C@H](CCCNC(=N)N)NC(=O)CNC(=O)[C@H](CCC(=O)O)NC(=O)[C@H](CCSC)NC(=O)[C@H](CCSC)NC(=O)[C@H](CC(=O)O)NC(=O)[C@H](Cc1ccc(O)cc1)NC(=O)[C@@H](NC(=O)[C@H](CCCNC(=N)N)NC(=O)[C@H](CCCCN)NC(=O)[C@@H]1CCCN1C(=S)Nc1ccc2c(c1)C(=O)OC21c2ccc(O)cc2Oc2cc(O)ccc21)[C@@H](C)O)C(C)C)C(N)=O [FITC-NCOR2] ({FITC}-PKRTYDMMEGRVGRAI-NH2)
Kd [4]: 0.013 ± 0.0008 µM

CC[C@H](C)[C@H](NC(=O)[C@H](Cc1c[nH]cn1)NC(=O)[C@H](CC(C)C)NC(=O)[C@H](CC(C)C)NC(=O)[C@H](CC(=O)O)NC(=O)[C@H](CCC(=O)O)NC(=O)[C@H](CC(=O)O)NC(=O)[C@H](CO)NC(=O)[C@H](CC(=O)O)NC(=O)[C@H](CC(=O)O)NC(=S)Nc1ccc2c(c1)C(=O)OC21c2ccc(O)cc2Oc2cc(O)ccc21)C(=O)O [FITC-IGF2R] ({FITC}-DDSDEDLLHI-OH)
Kd [5]: 31 ± 4 µM

CC[C@H](C)[C@H](NC(=O)[C@@H](NC(=O)[C@@H]1CCCN1C(=O)[C@H](CCC(=O)O)NC(=O)[C@H](CO)NC(=O)[C@H](C)NC(=O)[C@@H]1CCCN1C(=O)[C@H](CCSC)NC(=O)[C@@H]1CCCN1C(=O)[C@H](CCC(N)=O)NC(=O)[C@H](Cc1ccc(O)cc1)NC(=O)[C@@H]1CCCN1C(=O)[C@@H](NC(=O)[C@@H](NC(=O)[C@H](CCSC)NC(C)=O)[C@@H](C)O)[C@@H](C)CC)C(C)C)C(=O)N[C@@H](CS)C(N)=O [PCBP1_179–194 E] (Ac-MTIPYQPMPASEPVIC-NH2)
PES [6]: 1 (0.15)
Kd [7]: 2.05 ± 0.09 µM

CC(=O)N[C@@H](Cc1ccccc1)C(=O)N1CCC[C@H]1C(=O)N[C@@H](CO)C(=O)N[C@@H](CCC(=O)O)C(=O)N[C@@H](Cc1ccc(O)cc1)C(=O)N[C@H](C(=O)N[C@@H](CCCCN)C(=O)N[C@@H](CC(C)C)C(=O)N[C@@H](CC(C)C)C(=O)N[C@@H](CCC(=O)O)C(=O)N[C@@H](CCC(=O)O)C(=O)N[C@@H](CC(N)=O)C(=O)N[C@@H](CCC(=O)O)C(=O)N[C@H](C(=O)N[C@@H](CCC(=O)O)C(=O)N[C@@H](C)C(N)=O)[C@@H](C)O)[C@@H](C)O [BAIAPL1_392–407 E] (Ac-FPSEYTKLLEENETEA-NH2)
PES [6]: 1.2 (0.095)
Kd [7]: 0.49 ± 0.08 µM
